According to PMC10812672, “Short Antimicrobial Peptide Derived from the Venom Gland Transcriptome of Pamphobeteus verdolaga Increases Gentamicin Susceptibility of Multidrug-Resistant Klebsiella pneumoniae” (Antibiotics, 2023):
Ends that are not written are not given here.

Assays:
E. coli ATCC® 8739 = assay type: cell-based, Escherichia coli; details: CLSI broth microdilution, Mueller-Hinton broth, peptide 30 µM, ~6 × 10^6 CFU/mL, 24 h 37 °C, OD600; triplicate, three independent assays; NA = no activity
Procedure: (§1) Activity screening was conducted using the broth microdilution method at a fixed peptide concentration of 30 µM against E. coli ATCC® 8739 and 25922, as well as S. aureus ATCC® 6538 and 29213. The bacterial density used for screening was approximately 6 × 10^6 CFU/mL [30]. Peptide activity measurements were conducted in terms of the growth inhibition percentage. No dose-response curves were generated during the screening phase as a resource optimization strategy in the initial activity evaluation. […] For S. aureus ATCC® 6538 and S. aureus ATCC® 29213, growth inhibition ranged from 0% to 140% and 0% to 98%, respectively (Table 1).
(§2) The evaluation of the antimicrobial activity of the peptides was conducted using the CLSI’s broth microdilution method for bacterial susceptibility testing. For the screening phase, peptides were evaluated at a single 30 μM concentration, in triplicate and in three independent assays, against the E. coli ATCC® 8739, E. coli ATCC® 25922, S. aureus ATCC® 6538, or S. aureus ATCC® 29213 reference USP and CLSI strains. For the determination of MIC, MBC, or IC50, peptides or antibiotics were evaluated in concentrations between 1.56–200 µM. These evaluations were conducted in triplicate and in three independent assays, against the E. coli ATCC® 25922, S. aureus ATCC® 29213, E. faecalis ATCC® 49532, P. aeruginosa ATCC® 9027, and K. pneumoniae ATCC® BAA-1705, or the clinically isolated MDR strain. In detail, 1 mL of a glycerol stock solution of the ATCC® or clinically isolated bacterial strain was added to 9 mL of Mueller-Hinton Broth and incubated for 18 h, 180 rpm and 37 °C (Incubator 1000, Heidolph Instruments, Schwabach, Germany). After the incubation, 1 mL of the previous solution was transferred to a new recipient containing 9 mL of fresh Mueller-Hinton broth and incubated for 4 h, 180 rpm and 37 °C (Incubator 1000, Heidolph Instruments, Schwabach, Germany). During the second incubation, the peptides or the antibiotics were dissolved in PBS pH 7.20 in concentrations between 19.53–2500 µM (MC5 Micro Balance, Sartorius AG, Göttingen, Germany). An amount of 10 µL of either peptide or antibiotic was dispensed in triplicate in 96-well flat bottom culture plates, along with 10 µL of PBS (Negative activity control), BTM-P1 (Positive activity control), or 10 µL of Mueller-Hinton broth (Blank); then, 110 µL of Mueller-Hinton broth was poured in all wells. Following this, the bacteria were suspended in Mueller-Hinton broth up to a concentration of approximately 1.50 × 10^8 CFU/mL, as measured by optical density at 600 nm between 0.06 to 0.11 (0.5 McFarland standard), in a Multiskan SkyHigh spectrophotometer (ThermoFisher Scientific, Waltham, MA, USA). Amounts of 5 µL of the 1.50 × 10^8 CFU/mL suspension were added to each well (except for the blank) for a final well concentration of approximately 6 × 10^6 CFU/mL. The plate was incubated for 24 h at 37 °C (BE 500, Memmert GmbH, Büchenbach, Germany) and optical density was measured at 600 nm in a Multiskan SkyHigh spectrophotometer (ThermoFisher Scientific, Waltham, MI, USA). Following the measurement of optical density, plates were visually inspected to determine the MIC. Subsequently, 100 µL of the concentration associated to the MIC and 100 µL of the next higher concentration were added to Petri dishes containing Mueller-Hinton Agar. The dishes were then incubated for 24 h at 37 °C (BE 500, Memmert GmbH, Büchenbach, Germany). After incubation, the Petri dishes were visually inspected, and the MBC was determined in the absence of growth. IC50 values were interpolated from regressions with correlation values above 0.70. Growth inhibition percentages were calculated as follows: Growth inhibition %=1−AbsPEPTIDE or ANTIBIOTIC−Median AbsBLANK/Median AbsPBS−Median AbsBLANK×100

E. coli ATCC® 25922 = assay type: cell-based, Escherichia coli; details: CLSI broth microdilution, Mueller-Hinton broth, peptide 30 µM, ~6 × 10^6 CFU/mL, 24 h 37 °C, OD600; triplicate, three independent assays; NA = no activity
Procedure: as §1, §2

S. aureus ATCC® 29213 = assay type: cell-based, Staphylococcus aureus
Procedure: The nine AMPs identified in the initial screening were evaluated at concentrations between 1.56–200 µM, against E. coli ATCC® 25922, S. aureus ATCC® 29213, E. faecalis ATCC® 49532, P. aeruginosa ATCC® 9027, and K. pneumoniae ATCC® BAA-1705 (Supplementary Figures S2–S6). […] Only PvAMP66 and PvAMP172 reached the MBC for S. aureus at 50 µM and 100 µM, respectively (Table 2).
as §2

WKKIKKFF-NH2 [PvAMP66]
E. coli ATCC® 8739 (Inhibition %) (E. coli ATCC® 8739): 88.81 ± 18.15 % | E. coli ATCC® 25922 (Inhibition %) (E. coli ATCC® 25922): 73.59 ± 21.83 % | MIC (S. aureus ATCC® 29213; 1.56–200 µM, 24 h 37 °C, visual inspection, triplicate, three independent assays): 25 µM | MBC (S. aureus ATCC® 29213; plating on Mueller-Hinton agar, absence of growth): 50 µM
